From ChEMBL document CHEMBL3621142, “Discovery and Evaluation of Clinical Candidate AZD3759, a Potent, Oral Active, Central Nervous System-Penetrant, Epidermal Growth Factor Receptor Tyrosine Kinase Inhibitor” (J Med Chem, 2015)
Calls of active or inactive are those of the source. The calls are words filed in the database; no cut-off is given here.

Columns and labels:
[1] = Fraction unbound in Han Wistar rat blood at 5 uM by equilibrium dialysis method; assay type: ADME, tissue-based; conditions: Han Wistar
[2] = Fraction unbound in Han Wistar rat brain at 5 uM by equilibrium dialysis method; assay type: ADME, tissue-based; conditions: Han Wistar, brain
[3] = Elimination half life in Han Wistar rat at 2 mg/kg, po; assay type: ADME, organism-based; conditions: in vivo, read-out: beta t1/2 (converted)
[4] = Oral bioavailability in Han Wistar rat at 2 mg/kg; assay type: ADME, organism-based; conditions: Han Wistar, in vivo
[5] = AUC (0 to 7 hrs) in Han Wistar rat brain at 2 mg/kg, po by LC-MS/MS analysis; assay type: ADME, organism-based; set-up: dose 2 mg/kg, time < 7 hr, route oral; conditions: Han Wistar, brain
[6] = AUC (0 to 7 hrs) in Han Wistar rat CSF at 2 mg/kg, po by LC-MS/MS analysis; assay type: ADME, organism-based, Cerebrospinal fluid; set-up: time < 7 hr, dose 2 mg/kg, route oral; conditions: Han Wistar, CSF
[7] = AUC (0 to 7 hrs) in Han Wistar rat blood at 2 mg/kg, po by LC-MS/MS analysis; assay type: ADME, organism-based; set-up: dose 2 mg/kg, time < 7 hr, route oral; conditions: Han Wistar, blood
[8] = Ratio of unbound AUC (0 to 7 hrs) in brain to blood of Han Wistar rat at 2 mg/kg, po by LC-MS/MS analysis; assay type: ADME, organism-based; conditions: Han Wistar, brain and blood, read-out: K(p,uu,brain)
[9] = Ratio of unbound AUC (0 to 7 hrs) in CSF to blood of Han Wistar rat at 2 mg/kg, po by LC-MS/MS analysis; assay type: ADME, organism-based; conditions: Han Wistar, CSF and blood
[10] = Elimination half life in Han Wistar rat at 1 mg/kg, iv; assay type: ADME, organism-based; conditions: Han Wistar, in vivo, read-out: beta t1/2 (converted)
[11] = Clearance in Han Wistar rat at 1 mg/kg, iv; assay type: ADME, organism-based; conditions: in vivo
[12] = Volume of distribution at steady state in Han Wistar rat at 1 mg/kg, iv; assay type: ADME, organism-based; conditions: Han Wistar, in vivo, read-out: Vdss
[13] = AUC(0 to 24 hrs) in Han Wistar rat at 2 mg/kg, po; assay type: ADME, organism-based; set-up: dose 2 mg/kg, time < 24 hr, route oral; conditions: Han Wistar, in vivo
Hepatocyte = test: Intrinsic clearance in human hepatocytes; assay type: ADME, cell-based
[14] = Cmax in Han Wistar rat at 2 mg/kg, po at 1 hr; assay type: ADME, organism-based; set-up: dose 2 mg/kg, route oral; conditions: in vivo
[15] = Antiproliferative against human PC9 cells expressing EGFR exon19 deletion mutant after 72 hrs by MTS assay; assay type: functional, cell-based; conditions: PC-9, 72 h
[16] = Antiproliferative against human H3255 cells expressing EGFR L858R mutant after 72 hrs by MTS assay; assay type: functional, cell-based; conditions: NCI-H3255, 72 h
NCI-H838 = test: Antiproliferative against human NCI-H838 cells expressing EGFR wild-type after 72 hrs by MTS assay; assay type: functional, cell-based; conditions: NCI-H838, 72 h
[17] = target: Ephrin type-B receptor 4 (Homo sapiens) (UniProt P54760); test: Inhibition of recombinant EpHB4 (unknown origin) at 1 uM after 40 mins by scintillation counting analysis in presence of [gamma33P]-ATP
[18] = target: Vascular endothelial growth factor receptor 1 (Homo sapiens) (UniProt P17948); test: Inhibition of recombinant Flt (unknown origin) at 1 uM after 40 mins by scintillation counting analysis in presence of [gamma33P]-ATP
[19] = target: Tyrosine-protein kinase Fyn (Homo sapiens) (UniProt P06241); test: Inhibition of recombinant Fyn (unknown origin) at 1 uM after 40 mins by scintillation counting analysis in presence of [gamma33P]-ATP
Chain of Tyrosine-protein kinase Fyn (Homo sapiens) (P06241 2-537 limits assumed): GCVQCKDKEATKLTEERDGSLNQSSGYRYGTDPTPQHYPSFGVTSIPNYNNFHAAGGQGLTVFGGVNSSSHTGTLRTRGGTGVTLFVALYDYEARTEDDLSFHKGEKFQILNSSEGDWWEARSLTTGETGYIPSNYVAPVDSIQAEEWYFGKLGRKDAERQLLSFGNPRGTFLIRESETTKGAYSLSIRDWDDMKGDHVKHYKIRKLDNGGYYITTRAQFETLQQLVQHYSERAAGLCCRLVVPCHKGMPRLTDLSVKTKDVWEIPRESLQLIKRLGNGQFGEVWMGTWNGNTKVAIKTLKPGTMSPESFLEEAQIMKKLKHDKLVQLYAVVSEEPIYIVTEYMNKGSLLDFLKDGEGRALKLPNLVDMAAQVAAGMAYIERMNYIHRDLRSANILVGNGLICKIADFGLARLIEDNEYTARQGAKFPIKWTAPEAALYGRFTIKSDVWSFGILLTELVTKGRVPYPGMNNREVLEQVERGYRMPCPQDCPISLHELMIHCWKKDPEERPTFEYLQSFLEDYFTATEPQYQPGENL

[20] = target: T1, Vascular endothelial growth factor receptor 2 (Homo sapiens, UniProt P35968); test: Inhibition of recombinant KDR (unknown origin) at 1 uM after 40 mins by scintillation counting analysis in presence of [gamma33P]-ATP
T1 sequence (P35968 whole entry): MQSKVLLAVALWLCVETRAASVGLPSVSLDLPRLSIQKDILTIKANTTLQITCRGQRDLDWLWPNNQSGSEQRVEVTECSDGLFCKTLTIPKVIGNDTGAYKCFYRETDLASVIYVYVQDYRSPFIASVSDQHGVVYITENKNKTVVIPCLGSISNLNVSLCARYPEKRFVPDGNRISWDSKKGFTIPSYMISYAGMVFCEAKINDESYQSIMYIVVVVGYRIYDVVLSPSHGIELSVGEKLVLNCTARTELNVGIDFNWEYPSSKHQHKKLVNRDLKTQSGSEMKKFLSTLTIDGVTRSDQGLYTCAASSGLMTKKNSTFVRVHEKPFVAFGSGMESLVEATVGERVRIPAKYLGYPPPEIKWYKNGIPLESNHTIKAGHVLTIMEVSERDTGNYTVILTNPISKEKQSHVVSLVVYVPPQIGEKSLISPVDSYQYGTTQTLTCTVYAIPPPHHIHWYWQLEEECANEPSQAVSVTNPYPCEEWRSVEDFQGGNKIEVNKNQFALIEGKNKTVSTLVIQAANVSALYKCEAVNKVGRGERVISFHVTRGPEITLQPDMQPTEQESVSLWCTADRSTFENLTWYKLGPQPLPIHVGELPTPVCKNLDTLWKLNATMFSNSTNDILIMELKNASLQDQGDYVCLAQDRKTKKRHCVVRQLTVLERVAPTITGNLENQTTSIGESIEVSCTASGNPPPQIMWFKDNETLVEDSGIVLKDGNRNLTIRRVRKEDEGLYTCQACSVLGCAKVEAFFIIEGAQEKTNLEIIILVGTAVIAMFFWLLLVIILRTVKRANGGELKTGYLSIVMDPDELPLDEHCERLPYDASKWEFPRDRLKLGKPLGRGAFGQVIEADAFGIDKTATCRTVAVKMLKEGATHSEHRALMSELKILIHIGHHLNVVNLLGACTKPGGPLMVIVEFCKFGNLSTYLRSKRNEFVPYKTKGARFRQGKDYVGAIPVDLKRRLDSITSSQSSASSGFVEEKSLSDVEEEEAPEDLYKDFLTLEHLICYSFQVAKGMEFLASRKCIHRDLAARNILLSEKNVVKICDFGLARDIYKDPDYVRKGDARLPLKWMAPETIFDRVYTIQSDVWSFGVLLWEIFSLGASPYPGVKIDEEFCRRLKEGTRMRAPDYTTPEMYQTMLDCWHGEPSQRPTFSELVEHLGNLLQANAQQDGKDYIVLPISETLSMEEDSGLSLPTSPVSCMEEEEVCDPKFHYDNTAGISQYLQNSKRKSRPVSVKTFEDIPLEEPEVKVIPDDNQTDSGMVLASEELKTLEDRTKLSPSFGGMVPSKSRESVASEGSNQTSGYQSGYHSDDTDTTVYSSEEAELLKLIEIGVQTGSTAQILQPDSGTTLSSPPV

[21] = target: Tyrosine-protein kinase Lck (Homo sapiens) (UniProt P06239); test: Inhibition of recombinant Lck (unknown origin) at 1 uM after 40 mins by scintillation counting analysis in presence of [gamma33P]-ATP
Chain of Tyrosine-protein kinase Lck (Homo sapiens) (P06239 2-509 limits assumed): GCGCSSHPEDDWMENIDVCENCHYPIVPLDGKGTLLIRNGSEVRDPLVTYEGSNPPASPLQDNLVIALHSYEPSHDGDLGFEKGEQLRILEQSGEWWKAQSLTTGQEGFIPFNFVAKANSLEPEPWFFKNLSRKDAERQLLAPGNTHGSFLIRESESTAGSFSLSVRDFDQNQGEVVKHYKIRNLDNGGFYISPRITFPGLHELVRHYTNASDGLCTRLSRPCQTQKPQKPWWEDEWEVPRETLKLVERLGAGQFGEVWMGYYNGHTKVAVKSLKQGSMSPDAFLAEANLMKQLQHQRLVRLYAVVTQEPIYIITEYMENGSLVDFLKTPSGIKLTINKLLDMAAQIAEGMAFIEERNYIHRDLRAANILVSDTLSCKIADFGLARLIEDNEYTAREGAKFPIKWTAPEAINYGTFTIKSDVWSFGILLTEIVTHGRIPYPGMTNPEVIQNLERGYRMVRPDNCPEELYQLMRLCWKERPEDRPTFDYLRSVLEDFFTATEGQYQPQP

[22] = target: Tyrosine-protein kinase Lyn (Homo sapiens) (UniProt P07948); test: Inhibition of recombinant Lyn (unknown origin) at 1 uM after 40 mins by scintillation counting analysis in presence of [gamma33P]-ATP
Chain of Tyrosine-protein kinase Lyn (Homo sapiens) (P07948 2-512 limits assumed): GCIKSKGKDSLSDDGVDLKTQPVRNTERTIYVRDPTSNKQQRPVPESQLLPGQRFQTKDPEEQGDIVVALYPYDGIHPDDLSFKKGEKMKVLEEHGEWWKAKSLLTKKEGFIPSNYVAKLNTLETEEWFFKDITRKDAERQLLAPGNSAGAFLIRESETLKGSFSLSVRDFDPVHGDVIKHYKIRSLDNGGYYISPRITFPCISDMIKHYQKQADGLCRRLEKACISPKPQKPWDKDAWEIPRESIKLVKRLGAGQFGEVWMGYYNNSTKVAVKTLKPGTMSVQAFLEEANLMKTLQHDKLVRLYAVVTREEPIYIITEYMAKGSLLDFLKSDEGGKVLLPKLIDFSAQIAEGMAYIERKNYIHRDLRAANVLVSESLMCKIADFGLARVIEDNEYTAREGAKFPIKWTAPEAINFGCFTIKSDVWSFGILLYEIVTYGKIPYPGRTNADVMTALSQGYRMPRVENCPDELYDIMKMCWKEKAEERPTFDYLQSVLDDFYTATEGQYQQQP

[23] = target: T2, Proto-oncogene tyrosine-protein kinase Src (Homo sapiens, UniProt P12931); test: Inhibition of recombinant Src (unknown origin) at 1 uM after 40 mins by scintillation counting analysis in presence of [gamma33P]-ATP
T2 sequence (P12931 2-536 limits assumed): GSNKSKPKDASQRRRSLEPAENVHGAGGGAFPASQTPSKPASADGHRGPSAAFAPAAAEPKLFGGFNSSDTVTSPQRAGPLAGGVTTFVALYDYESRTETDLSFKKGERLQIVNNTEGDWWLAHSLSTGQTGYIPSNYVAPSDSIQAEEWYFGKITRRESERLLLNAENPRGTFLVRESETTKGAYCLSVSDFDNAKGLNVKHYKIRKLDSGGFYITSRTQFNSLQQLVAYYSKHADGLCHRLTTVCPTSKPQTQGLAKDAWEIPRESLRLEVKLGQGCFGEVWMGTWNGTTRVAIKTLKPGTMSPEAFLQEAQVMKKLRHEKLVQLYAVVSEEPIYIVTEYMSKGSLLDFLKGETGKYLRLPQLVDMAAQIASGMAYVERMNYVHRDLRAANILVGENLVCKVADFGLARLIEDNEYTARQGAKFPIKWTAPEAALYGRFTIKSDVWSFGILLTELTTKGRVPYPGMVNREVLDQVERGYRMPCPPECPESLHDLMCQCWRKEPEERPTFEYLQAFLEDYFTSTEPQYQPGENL

[24] = target: Tyrosine-protein kinase Yes (Homo sapiens) (UniProt P07947); test: Inhibition of recombinant Yes (unknown origin) at 1 uM after 40 mins by scintillation counting analysis in presence of [gamma33P]-ATP
[25] = target: T1, Vascular endothelial growth factor receptor 2; test: Inhibition of recombinant KDR (unknown origin) after 40 mins by scintillation counting analysis in presence of [gamma33P]-ATP
[26] = target: T2, Proto-oncogene tyrosine-protein kinase Src; test: Inhibition of recombinant Src (unknown origin) after 40 mins by scintillation counting analysis in presence of [gamma33P]-ATP
D(2) dopamine receptor = D(2) dopamine receptor (Homo sapiens, UniProt P14416); test: Inhibition of recombinant D2 receptor (unknown origin)
Chain of D(2) dopamine receptor (P14416 whole entry): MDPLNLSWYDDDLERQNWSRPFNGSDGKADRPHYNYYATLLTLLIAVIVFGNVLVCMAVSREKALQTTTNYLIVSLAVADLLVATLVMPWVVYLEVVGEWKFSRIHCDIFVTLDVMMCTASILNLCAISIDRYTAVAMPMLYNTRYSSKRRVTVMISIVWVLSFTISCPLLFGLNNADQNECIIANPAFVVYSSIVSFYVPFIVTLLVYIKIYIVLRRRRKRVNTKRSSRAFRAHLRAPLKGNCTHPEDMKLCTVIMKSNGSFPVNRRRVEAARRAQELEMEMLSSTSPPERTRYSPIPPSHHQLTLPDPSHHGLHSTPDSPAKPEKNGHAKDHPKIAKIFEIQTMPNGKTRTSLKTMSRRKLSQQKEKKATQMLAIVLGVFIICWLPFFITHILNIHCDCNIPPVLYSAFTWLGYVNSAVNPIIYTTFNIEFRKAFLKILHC

Cytochrome P450 1A2 = Cytochrome P450 1A2 (Homo sapiens, UniProt P05177); test: Inhibition of CYP1A2 (unknown origin); assay type: ADME
Chain of Cytochrome P450 1A2 (P05177 whole entry): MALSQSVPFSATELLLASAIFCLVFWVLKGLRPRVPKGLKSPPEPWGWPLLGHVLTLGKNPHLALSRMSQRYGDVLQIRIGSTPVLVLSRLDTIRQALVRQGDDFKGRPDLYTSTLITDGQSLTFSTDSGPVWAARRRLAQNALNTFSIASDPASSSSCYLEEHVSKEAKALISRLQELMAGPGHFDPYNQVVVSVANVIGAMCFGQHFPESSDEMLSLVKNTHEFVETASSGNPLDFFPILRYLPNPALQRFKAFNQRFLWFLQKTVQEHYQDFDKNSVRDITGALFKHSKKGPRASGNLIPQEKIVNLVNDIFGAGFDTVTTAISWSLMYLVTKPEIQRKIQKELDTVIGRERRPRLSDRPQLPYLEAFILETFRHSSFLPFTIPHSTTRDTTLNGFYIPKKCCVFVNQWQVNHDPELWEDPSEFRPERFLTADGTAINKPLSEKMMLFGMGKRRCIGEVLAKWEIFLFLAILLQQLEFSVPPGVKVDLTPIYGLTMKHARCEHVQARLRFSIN

Cytochrome P450 2B6 = Cytochrome P450 2B6 (Homo sapiens, UniProt P20813); test: Inhibition of CYP2B6 (unknown origin); assay type: ADME
Cytochrome P450 2C8 = Cytochrome P450 2C8 (Homo sapiens, UniProt P10632); test: Inhibition of CYP2C8 (unknown origin); assay type: ADME
Cytochrome P450 2C9 = Cytochrome P450 2C9 (Homo sapiens, UniProt P11712); test: Inhibition of CYP2C9 (unknown origin); assay type: ADME
Cytochrome P450 2C19 = Cytochrome P450 2C19 (Homo sapiens, UniProt P33261); test: Inhibition of CYP2C19 (unknown origin); assay type: ADME
Cytochrome P450 2D6 = Cytochrome P450 2D6 (Homo sapiens, UniProt P10635); test: Inhibition of CYP2D6 (unknown origin); assay type: ADME
Chain of Cytochrome P450 2D6 (P10635 whole entry): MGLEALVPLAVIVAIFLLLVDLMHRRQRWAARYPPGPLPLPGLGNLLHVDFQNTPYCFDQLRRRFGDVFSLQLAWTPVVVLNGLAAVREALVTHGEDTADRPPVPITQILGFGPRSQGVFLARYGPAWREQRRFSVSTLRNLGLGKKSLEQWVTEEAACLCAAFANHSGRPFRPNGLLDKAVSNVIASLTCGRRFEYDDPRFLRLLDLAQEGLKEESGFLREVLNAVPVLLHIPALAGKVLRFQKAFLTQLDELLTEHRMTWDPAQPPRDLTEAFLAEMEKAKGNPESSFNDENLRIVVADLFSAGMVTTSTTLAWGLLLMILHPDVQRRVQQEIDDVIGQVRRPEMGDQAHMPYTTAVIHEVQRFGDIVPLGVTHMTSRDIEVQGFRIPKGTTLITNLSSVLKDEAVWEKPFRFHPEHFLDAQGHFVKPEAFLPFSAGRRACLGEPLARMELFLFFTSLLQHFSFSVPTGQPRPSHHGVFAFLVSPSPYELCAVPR

Cytochrome P450 3A4 = Cytochrome P450 3A4 (Homo sapiens, UniProt P08684); test: Inhibition of CYP3A4 (unknown origin); assay type: ADME
Cytochrome P450 3A5 = Cytochrome P450 3A5 (Homo sapiens, UniProt P20815); test: Inhibition of CYP3A5 (unknown origin); assay type: ADME
[27] = AUC(0 to 24 hrs) in beagle dog at 1 mg/kg, iv; assay type: ADME, organism-based, Canis lupus familiaris; set-up: dose 1 mg/kg, time < 24 hr, route intravenous; conditions: in vivo
[28] = Permeability from apical to basolateral side in MDCK2-MDR1 cells; assay type: ADME, cell-based, Canis lupus familiaris, MDCK-II; conditions: dog, MDCK-MDR1
[29] = Elimination half life in beagle dog at 1 mg/kg, iv; assay type: ADME, organism-based, Canis lupus familiaris; conditions: in vivo, read-out: beta t1/2 (converted)
[30] = Clearance in beagle dog at 1 mg/kg, iv; assay type: ADME, organism-based, Canis lupus familiaris; conditions: in vivo
[31] = Volume of distribution at steady state in beagle dog at 1 mg/kg, iv; assay type: ADME, organism-based, Canis lupus familiaris; conditions: in vivo, read-out: Vdss
[32] = AUC(0 to 24 hrs) in beagle dog at 2 mg/kg, po; assay type: ADME, organism-based, Canis lupus familiaris; set-up: dose 2 mg/kg, time < 24 hr, route oral; conditions: in vivo
[33] = Elimination half life in beagle dog at 2 mg/kg, po; assay type: ADME, organism-based, Canis lupus familiaris; conditions: in vivo, read-out: beta t1/2 (converted)
[34] = Oral bioavailability in beagle dog at 2 mg/kg; assay type: ADME, organism-based, Canis lupus familiaris; conditions: in vivo
[35] = Tmax in beagle dog at 2 mg/kg, po; assay type: ADME, organism-based, Canis lupus familiaris; conditions: in vivo
[36] = Cmax in beagle dog at 2 mg/kg, po; assay type: ADME, organism-based, Canis lupus familiaris; set-up: dose 2 mg/kg, route oral; conditions: in vivo
[37] = Ratio of fraction unbound in brain to plasma of cynomolgus monkey at 150 MBq, iv by positron emission tomography; assay type: ADME, organism-based, Macaca fascicularis
[38] = Ratio of fraction unbound in brain to plasma of cynomolgus monkey at 155 MBq, iv by positron emission tomography; assay type: ADME, organism-based, Macaca fascicularis
PC-9 [39] = test: Antitumor activity against human PC9 cells expressing EGFR exon19 deletion mutant xenografted in mouse measured after 4 weeks; assay type: functional, cell-based
[40] = Antitumor activity against human PC9 cells expressing EGFR exon19 deletion mutant xenografted in mouse assessed as tumor growth inhibition at 7.5 mg/kg, qd measured after 4 weeks; assay type: functional; conditions: PC-9, 672 h
PC-9 [41] = test: Antitumor activity against human PC9 cells expressing EGFR exon19 deletion mutant xenografted in mouse assessed as tumor regression at 15 mg/kg, qd measured after 4 weeks; assay type: functional, organism-based
Mus musculus [42] = test: Toxicity in PC9 cells expressing EGFR exon19 deletion mutant xenografted mouse assessed as loss of body weight at 7.5 mg/kg, qd; assay type: organism-based, PC-9; conditions: in vivo
Mus musculus [43] = test: Toxicity in PC9 cells expressing EGFR exon19 deletion mutant xenografted mouse assessed as loss of body weight at 15 mg/kg, qd; assay type: organism-based, PC-9; conditions: in vivo
PC-9 [44] = test: Antitumor activity against human PC9 cells expressing EGFR exon19 deletion mutant xenografted in mouse assessed as decrease in tumor area in brain at 7.5 mg/kg, qd; assay type: functional, organism-based
PC-9 [45] = test: Antitumor activity against human PC9 cells expressing EGFR exon19 deletion mutant xenografted in mouse assessed as decrease in tumor area in brain at 15 mg/kg, qd; assay type: functional, organism-based
PC-9 [46] = test: Antitumor activity against human PC9 cells expressing EGFR exon19 deletion mutant xenografted in mouse assessed as modulation of pEGFR expression in brain at 15 mg/kg administered as single dose measured after 1 hr by immunohistochemical analysis; assay type: functional, organism-based

Which results are given for `COc1cc2ncnc(Nc3cccc(Cl)c3F)c2cc1OC(=O)N1CCN(C)C[C@H]1C` [AZD-3759]?
fraction unbound at 5 µM [1]: 0.047; fraction unbound at 5 µM [2]: 0.02; half-life [3]: 4.3 h; bioavailability [4]: 91%; AUC(0-t) at 7 h [5]: 3.69 µM·h; AUC(0-t) at 7 h [6]: 0.076 µM·h; AUC(0-t) at 7 h [7]: 1.23 µM·h; Kp uu [8]: 1.3; Kp uu [9]: 1.3; half-life [10]: 4.1 h; clearance [11]: 17 mL/min/kg; Vd [12]: 5.2 L/kg; AUC(0-t) at 24 h [13]: 3.8 µM·h; CLH (Hepatocyte): 11.4 µL/min; Cmax [14]: 580 nM; IC50 [15]: 0.0077 µM; IC50 [16]: 0.007 µM; IC50 (NCI-H838): 21.6 µM; inhibition [17]: 83%; inhibition [18]: 57%; inhibition [19]: 58%; inhibition [20]: 62%; inhibition [21]: 61%; inhibition [22]: 74%; inhibition [23]: 69%; inhibition [24]: 87%; IC50 [25]: 0.156 µM; IC50 [26]: 0.622 µM; IC50 (D(2) dopamine receptor): 0.797 µM; IC50 (Cytochrome P450 1A2): > 50 µM; IC50 (Cytochrome P450 2B6): > 50 µM; IC50 (Cytochrome P450 2C8): > 50 µM; IC50 (Cytochrome P450 2C9): > 50 µM; IC50 (Cytochrome P450 2C19): > 50 µM; IC50 (Cytochrome P450 2D6): > 50 µM; IC50 (Cytochrome P450 3A4): > 50 µM; IC50 (Cytochrome P450 3A5): > 50 µM; AUC(0-t) at 24 h [27]: 2.56 µM·h; Papp A→B [28]: 36 ×10⁻⁶ cm/s; half-life [29]: 6.2 h; clearance [30]: 14 mL/min/kg; Vd [31]: 6.4 L/kg; AUC(0-t) at 24 h [32]: 4.62 µM·h; half-life [33]: 5.5 h; bioavailability [34]: 90.2%; Tmax [35]: 0.5 h; Cmax [36]: 698 nM; BPR [37]: 0.5; BPR [38]: 0.53; Activity (PC-9 [39]): Dose-dependent effect; inhibition in vivo at 7.5 mg/kg [40]: 78%; Activity (PC-9 [41]): Active; Activity (Mus musculus [42]): < 20%; Activity (Mus musculus [43]): < 20%; inhibition (PC-9 [44]): Active; inhibition (PC-9 [45]): Active; Activity (PC-9 [46]): Active
